According to PMC8880671, “Facial Synthesis and Bioevaluation of Well-Defined OEGylated Betulinic Acid-Cyclodextrin Conjugates for Inhibition of Influenza Infection” (Molecules, 2022):
Like-named read-outs stand apart in the source and are kept apart here.

Tests used:
A/PR/8/34 virus = system: A/PR/8/34 virus; parameters: method as in PMID 26157551; conditions: 10 μM; cited from earlier work
influenza virus [1] = system: influenza virus; parameters: method as in PMID 28792469; conditions: 50 µg/mL; cited from earlier work
influenza virus [2] = system: influenza virus; parameters: method as in doi:10.1134/S1068162018050059; conditions: read-out: EC50, anti-influenza activity; cited from earlier work
MDCK cells [3] = conditions: read-out: CC50 (cytotoxicity concentration for 50% cell death); cited from earlier work
[4] = Cytotoxicity test, CellTiter-Glo luminescent cell viability assay; conditions: dog, MDCK cells
[5] = system: avian influenza KBNP-0028 (H9N2) virus; conditions: read-out: EC50 against avian influenza KBNP-0028 (H9N2) virus; cited from earlier work
[6] = system: influenza A/WSN/33 (H1N1) virus; assay: microbe, parasite or virus in culture; format: cell-based; conditions: for IC50: read-out: IC50 (half maximal inhibitory concentration); for inhibition rate against influenza virus A/WSN/33 (H1N1): CPE-based screening at 20 μM
in vitro = conditions: dog
MDCK cells [7] = assay: Cytotoxicity test, CellTiter-Glo luminescent cell viability assay; conditions: for CC50: read-out: CC50 (cytotoxicity concentration for 50% cell death), MDCK cells; for MDCK cell viability: 100 µM, 36 h, CellTiter-Glo

In the case of `C=C(C)[C@@H]1CC[C@]2(C(=O)O)CC[C@]3(C)[C@H](CC[C@@H]4[C@@]5(C)CC[C@H](O)C(C)(C)[C@@H]5CC[C@]43C)[C@@H]12` [BA, Betulinic acid], the “anti-influenza activity against A/PR/8/34 virus” value (A/PR/8/34 virus) is listed as ~ 30%, the “anti-influenza activity (inhibition)” value (influenza virus [1]) is listed as 27.6% and the EC50 (influenza virus [2]) is listed as over 219 µM. For the same molecule, the CC50 (MDCK cells [3]) was 31.9 µM and the viability at 36 h, 100 µM [4] was 8.5%.
In the case of `C=C(C)[C@@H]1CC[C@]2(C=O)CC[C@]3(C)[C@H](CC[C@@H]4[C@@]5(C)CC[C@H](O)C(C)(C)[C@@H]5CC[C@]43C)[C@@H]12` [Betulinic aldehyde], the EC50 [5] is given as 28.4 µM.
In the case of `CC(=O)N[C@H]1[C@H]([C@H](O)[C@H](O)CO)OC(C(=O)O)=C[C@@H]1N=C(N)N` [Zanamivir, reference compound], the “SI (Selectivity Index, ratio of CC50 to IC50)” value [6] is reported as over 79.4, the IC50 ([6]; Influenza A virus, MDCK, 36 h) is reported as 1.26 ± 0.36 µM and the CC50 (in vitro) is reported as over 100 µM.
With “Heptakis 6-Deoxy-6-[4-N-(3β-Hydroxy-lup-20(29)-en-28-oyl)-aminomethyl-1H-1,2,3-triazol-1-yl]-β-CD [Compound 70]” the IC50 [6] was 7.48 ± 1.93 µM and the CC50 (MDCK cells [7]) was over 100 µM.
For “Heptakis 6-Deoxy-6-[4-N-[(2-(2-(2-Propyn-1-yloxy)ethoxy)ethyl)-3β-hydroxy-lup-20(29)-en-28-Oyl]-aminomethyl-1H-1,2,3-triazol-1-Yl]-2,3-di-O-acetyl-β-CD [Compound 58]”, the MDCK cell viability (MDCK cells [7]) was 68%.
Molecule “Heptakis 6-Deoxy-6-[4-N-[(3,6,9,12,15,18-Hexaoxaheneicos-20-yn-1-yl)-3β-hydroxy-lup-20(29)-en-28-oyl]-aminomethyl-1H-1,2,3-triazol-1-yl]-β-CD [Compound 82]” has an MDCK cell viability (MDCK cells [7]) of 67%.
With “Hexakis 6-Deoxy-6-[4-N-(3β-Hydroxy-lup-20(29)-en-28-oyl)-aminomethyl-1H-1,2,3-triazol-1-yl]-α-CD [Compound 69]” the IC50 [6] was 9.82 ± 1.74 µM and the CC50 (MDCK cells [7]) was over 100 µM.
In the case of “Hexakis 6-Deoxy-6-[4-N-[(2-(2-(2-Propyn-1-yloxy)ethoxy)ethyl)-3β-hydroxy-lup-20(29)-en-28-oyl]-aminomethyl-1H-1,2,3-triazol-1-yl]-2,3-di-O-acetyl-α-CD [Compound 57]”, the “inhibition rate against influenza virus A/WSN/33 (H1N1)” value (shortened to “inhibition rate”) [6] is reported as “over 50%”.
For “Hexakis 6-Deoxy-6-[4-N-[(2-(2-(2-Propyn-1-yloxy)ethoxy)ethyl)-3β-hydroxy-lup-20(29)-en-28-oyl]-aminomethyl-1H-1,2,3-triazol-1-yl]-α-CD [Compound 75]”, the IC50 ([6]; A/WSN/33 virus in MDCK cells, MOI 0.2, 36 h) was 15.6 ± 3.32 µM and the “inhibition rate” value [6] was “over 50%”.
In the case of “Hexakis 6-Deoxy-6-[4-N-[(3,6,9,12-Tetraoxapentadec-14-yn-1-yl)-3β-hydroxy-lup-20(29)-en-28-oyl]-aminomethyl-1H-1,2,3-triazol-1-yl]-α-CD [Compound 78]”, the “inhibition rate” value [6] is reported as “over 50%”.
Molecule “Octakis 6-Deoxy-6-[4-N-(3β-Hydroxy-lup-20(29)-en-28-oyl)-aminomethyl-1H-1,2,3-triazol-1-yl]-γ-CD [Compound 71]” has an IC50 [6] of 7.59 ± 1.57 µM and a CC50 (MDCK cells [7]) of over 100 µM.
“Octakis 6-Deoxy-6-[4-N-[(3,6,9,12-Tetraoxapentadec-14-yn-1-yl)-3β-hydroxy-lup-20(29)-en-28-oyl]-aminomethyl-1H-1,2,3-triazol-1-yl]-γ-CD [Compound 80]” showed an MDCK cell viability (MDCK cells [7]) of 64%.
